{
  "source": "PubChem BioAssay AID2060498",
  "about": "(Molecular Pharmacology Branch, DTP, NCI, 2025)",
  "tested_on": "171881-019-R-J1-PDC tumor spheroids, viability",
  "experiment": "Anticancer human tumor 171881-019-R-J1-PDC patient-derived invasive breast carcinoma cell line growth inhibition [GQUAD]",
  "details": "spheroids with HUVEC and MSC; for IC50: curve of first compound; for viability, T/C: stronger effect = lower value",
  "summary_of_the_method": "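Viability of tumor cells grown as complex spheroids with endothelial and stromal cells, exposed to drug combinations. Top concentration at or near clinical Cmax (else 10 microM), diluted in half-log increments.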",
  "key": {"[1]": {"details": "second compound 0.0316 µM, first compound 0.000999 µM"}, "[2]": {"details": "second compound 0.0316 µM, first compound 0.00316 µM"}, "[3]": {"details": "second compound 0.0316 µM, first compound 0.00999 µM"}, "[4]": {"details": "second compound 0.0316 µM, first compound 0.0316 µM"}, "[5]": {"details": "second compound 0.0316 µM, first compound 0.0999 µM"}, "[6]": {"details": "second compound 0.0316 µM, first compound 0.316 µM"}, "[7]": {"details": "second compound 0.1 µM, first compound 0.000999 µM"}, "[8]": {"details": "second compound 0.1 µM, first compound 0.00316 µM"}, "[9]": {"details": "second compound 0.1 µM, first compound 0.00999 µM"}, "[10]": {"details": "second compound 0.1 µM, first compound 0.0316 µM"}, "[11]": {"details": "second compound 0.1 µM, first compound 0.0999 µM"}, "[12]": {"details": "second compound 0.1 µM, first compound 0.316 µM"}, "[13]": {"details": "second compound 0.316 µM, first compound 0.000999 µM"}, "[14]": {"details": "second compound 0.316 µM, first compound 0.00316 µM"}, "[15]": {"details": "second compound 0.316 µM, first compound 0.00999 µM"}, "[16]": {"details": "second compound 0.316 µM, first compound 0.0316 µM"}, "[17]": {"details": "second compound 0.316 µM, first compound 0.0999 µM"}, "[18]": {"details": "second compound 0.316 µM, first compound 0.316 µM"}, "[19]": {"details": "second compound 1 µM, first compound 0.000999 µM"}, "[20]": {"details": "second compound 1 µM, first compound 0.00316 µM"}, "[21]": {"details": "second compound 1 µM, first compound 0.00999 µM"}, "[22]": {"details": "second compound 1 µM, first compound 0.0316 µM"}, "[23]": {"details": "second compound 1 µM, first compound 0.0999 µM"}, "[24]": {"details": "second compound 1 µM, first compound 0.316 µM"}, "[25]": {"details": "second compound 3.16 µM, first compound 0.000999 µM"}, "[26]": {"details": "second compound 3.16 µM, first compound 0.00316 µM"}, "[27]": {"details": "second compound 3.16 µM, first compound 0.00999 µM"}, "[28]": {"details": "second compound 3.16 µM, first compound 0.0316 µM"}, "[29]": {"details": "second compound 3.16 µM, first compound 0.0999 µM"}, "[30]": {"details": "second compound 3.16 µM, first compound 0.316 µM"}, "[31]": {"details": "second compound 10 µM, first compound 0.000999 µM"}, "[32]": {"details": "second compound 10 µM, first compound 0.00316 µM"}, "[33]": {"details": "second compound 10 µM, first compound 0.00999 µM"}, "[34]": {"details": "second compound 10 µM, first compound 0.0316 µM"}, "[35]": {"details": "second compound 10 µM, first compound 0.0999 µM"}, "[36]": {"details": "second compound 10 µM, first compound 0.316 µM"}},
  "data": [
    {"compound": "Cc1[nH]c2ccccc2c1CCNCc1ccc(/C=C/C(=O)NO)cc1", "note": "+ Cc1[nH]c2ccc(F)cc2c1-c1nc2c3cccnc3c3ncccc3c2[nH]1;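 on viability, T/C: 100% = DMSO vehicle control viability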", "values": [
      {"measurement": "IC50", "setting": "second compound 0.0316 µM", "result": 59.6, "unit": "nM"},
      {"measurement": "IC50", "setting": "second compound 0.1 µM", "result": 64.8, "unit": "nM"},
      {"measurement": "IC50", "setting": "second compound 0.316 µM", "result": 49.1, "unit": "nM"},
      {"measurement": "IC50", "setting": "second compound 1 µM", "result": 32.5, "unit": "nM"},
      {"measurement": "IC50", "setting": "second compound 3.16 µM", "result": "< 0.999", "unit": "nM"},
      {"measurement": "IC50", "setting": "second compound 10 µM", "result": "< 0.999", "unit": "nM"},
      {"measurement": "viability, T/C", "setting": "[1]", "result": 109, "unit": "%"},
      {"measurement": "viability, T/C", "setting": "[2]", "result": 107, "unit": "%"},
      {"measurement": "viability, T/C", "setting": "[3]", "result": 94.6, "unit": "%"},
      {"measurement": "viability, T/C", "setting": "[4]", "result": 84.6, "unit": "%"},
      {"measurement": "viability, T/C", "setting": "[5]", "result": 22.5, "unit": "%"},
      {"measurement": "viability, T/C", "setting": "[6]", "result": 0.66, "unit": "%"},
      {"measurement": "viability, T/C", "setting": "[7]", "result": 90.7, "unit": "%"},
      {"measurement": "viability, T/C", "setting": "[8]", "result": 98.2, "unit": "%"},
      {"measurement": "viability, T/C", "setting": "[9]", "result": 99.5, "unit": "%"},
      {"measurement": "viability, T/C", "setting": "[10]", "result": 91.7, "unit": "%"},
      {"measurement": "viability, T/C", "setting": "[11]", "result": 24.8, "unit": "%"},
      {"measurement": "viability, T/C", "setting": "[12]", "result": 0.58, "unit": "%"},
      {"measurement": "viability, T/C", "setting": "[13]", "result": 91.7, "unit": "%"},
      {"measurement": "viability, T/C", "setting": "[14]", "result": 72.2, "unit": "%"},
      {"measurement": "viability, T/C", "setting": "[15]", "result": 85.5, "unit": "%"},
      {"measurement": "viability, T/C", "setting": "[16]", "result": 63.3, "unit": "%"},
      {"measurement": "viability, T/C", "setting": "[17]", "result": 27, "unit": "%"},
      {"measurement": "viability, T/C", "setting": "[18]", "result": 0.34, "unit": "%"},
      {"measurement": "viability, T/C", "setting": "[19]", "result": 66.8, "unit": "%"},
      {"measurement": "viability, T/C", "setting": "[20]", "result": 55.9, "unit": "%"},
      {"measurement": "viability, T/C", "setting": "[21]", "result": 63.1, "unit": "%"},
      {"measurement": "viability, T/C", "setting": "[22]", "result": 50.3, "unit": "%"},
      {"measurement": "viability, T/C", "setting": "[23]", "result": 20.4, "unit": "%"},
      {"measurement": "viability, T/C", "setting": "[24]", "result": 0.35, "unit": "%"},
      {"measurement": "viability, T/C", "setting": "[25]", "result": 9.69, "unit": "%"},
      {"measurement": "viability, T/C", "setting": "[26]", "result": 7.8, "unit": "%"},
      {"measurement": "viability, T/C", "setting": "[27]", "result": 7.35, "unit": "%"},
      {"measurement": "viability, T/C", "setting": "[28]", "result": 5.79, "unit": "%"},
      {"measurement": "viability, T/C", "setting": "[29]", "result": 1.55, "unit": "%"},
      {"measurement": "viability, T/C", "setting": "[30]", "result": 0.52, "unit": "%"},
      {"measurement": "viability, T/C", "setting": "[31]", "result": 43.6, "unit": "%"},
      {"measurement": "viability, T/C", "setting": "[32]", "result": 46.2, "unit": "%"},
      {"measurement": "viability, T/C", "setting": "[33]", "result": 41.6, "unit": "%"},
      {"measurement": "viability, T/C", "setting": "[34]", "result": 46.7, "unit": "%"},
      {"measurement": "viability, T/C", "setting": "[35]", "result": 13.9, "unit": "%"},
      {"measurement": "viability, T/C", "setting": "[36]", "result": 0.41, "unit": "%"}
    ]},
    {"compound": "CC[C@@]1(O)C(=O)OCc2c1cc1n(c2=O)Cc2cc3c(CN(C)C)c(O)ccc3nc2-1", "note": "+ CN(C)c1ccc(Nc2c3ccc(NC(=O)CCN4CCCC4)cc3nc3cc(NC(=O)CCN4CCCC4)ccc23)cc1", "values": [
      {"measurement": "IC50", "setting": "second compound 0.0316 µM", "result": 255, "unit": "nM"},
      {"measurement": "IC50", "setting": "second compound 0.1 µM", "result": 251, "unit": "nM"},
      {"measurement": "IC50", "setting": "second compound 0.316 µM", "result": 189, "unit": "nM"},
      {"measurement": "IC50", "setting": "second compound 1 µM", "result": "< 0.999", "unit": "nM"},
      {"measurement": "IC50", "setting": "second compound 3.16 µM", "result": "< 0.999", "unit": "nM"},
      {"measurement": "IC50", "setting": "second compound 10 µM", "result": "< 0.999", "unit": "nM"},
      {"measurement": "viability, T/C", "setting": "[1]", "result": 110, "unit": "%"},
      {"measurement": "viability, T/C", "setting": "[2]", "result": 108, "unit": "%"},
      {"measurement": "viability, T/C", "setting": "[3]", "result": 105, "unit": "%"},
      {"measurement": "viability, T/C", "setting": "[4]", "result": 99.5, "unit": "%"},
      {"measurement": "viability, T/C", "setting": "[5]", "result": 57.8, "unit": "%"},
      {"measurement": "viability, T/C", "setting": "[6]", "result": 48.3, "unit": "%"},
      {"measurement": "viability, T/C", "setting": "[7]", "result": 110, "unit": "%"},
      {"measurement": "viability, T/C", "setting": "[8]", "result": 112, "unit": "%"},
      {"measurement": "viability, T/C", "setting": "[9]", "result": 93.9, "unit": "%"},
      {"measurement": "viability, T/C", "setting": "[10]", "result": 115, "unit": "%"},
      {"measurement": "viability, T/C", "setting": "[11]", "result": 61.9, "unit": "%"},
      {"measurement": "viability, T/C", "setting": "[12]", "result": 47, "unit": "%"},
      {"measurement": "viability, T/C", "setting": "[13]", "result": 85, "unit": "%"},
      {"measurement": "viability, T/C", "setting": "[14]", "result": 85.3, "unit": "%"},
      {"measurement": "viability, T/C", "setting": "[15]", "result": 63.3, "unit": "%"},
      {"measurement": "viability, T/C", "setting": "[16]", "result": 70.7, "unit": "%"},
      {"measurement": "viability, T/C", "setting": "[17]", "result": 60.6, "unit": "%"},
      {"measurement": "viability, T/C", "setting": "[18]", "result": 42.4, "unit": "%"},
      {"measurement": "viability, T/C", "setting": "[19]", "result": 23.9, "unit": "%"},
      {"measurement": "viability, T/C", "setting": "[20]", "result": 14.9, "unit": "%"},
      {"measurement": "viability, T/C", "setting": "[21]", "result": 17.4, "unit": "%"},
      {"measurement": "viability, T/C", "setting": "[22]", "result": 11.6, "unit": "%"},
      {"measurement": "viability, T/C", "setting": "[23]", "result": 10.3, "unit": "%"},
      {"measurement": "viability, T/C", "setting": "[24]", "result": 14.4, "unit": "%"},
      {"measurement": "viability, T/C", "setting": "[25]", "result": 2.23, "unit": "%"},
      {"measurement": "viability, T/C", "setting": "[26]", "result": 1.91, "unit": "%"},
      {"measurement": "viability, T/C", "setting": "[27]", "result": 2.49, "unit": "%"},
      {"measurement": "viability, T/C", "setting": "[28]", "result": 1.45, "unit": "%"},
      {"measurement": "viability, T/C", "setting": "[29]", "result": 2.03, "unit": "%"},
      {"measurement": "viability, T/C", "setting": "[30]", "result": 1.84, "unit": "%"},
      {"measurement": "viability, T/C", "setting": "[31]", "result": 0.21, "unit": "%"},
      {"measurement": "viability, T/C", "setting": "[32]", "result": 1.05, "unit": "%"},
      {"measurement": "viability, T/C", "setting": "[33]", "result": 0.53, "unit": "%"},
      {"measurement": "viability, T/C", "setting": "[34]", "result": 0.24, "unit": "%"},
      {"measurement": "viability, T/C", "setting": "[35]", "result": 0.6, "unit": "%"},
      {"measurement": "viability, T/C", "setting": "[36]", "result": 0.58, "unit": "%"}
    ]}
  ]
}
